Values joined by “and” are separate entries in the source; they are usually repeats but may differ in a detail not shown here. Equal entries are not always repeated. Where two headings read alike, the source gives them in different places.
Experiment: Pharmacokinetics and plasma concentration of Example 101 in Lewis rats after oral administration (CIA study)
Type: in vivo, Lewis rat
Settings: oral, oral; for concentration at 21 day: 30 mg/kg, Day 21, Group 7 (CIA); for MRT inf: read-out: MRTInf—obs
[1] = Lewis, rat, plasma, po, 10 mg/kg, Lewis rats, 10 mg/kg, day 20, mean
[2] = Lewis, rat, plasma, po, 10 mg/kg, day 0, 10 mg/kg, Mean
[3] = Lewis, rat, plasma, po, 10 mg/kg, day 0, 10 mg/kg, per test subject
[4] = Lewis, rat, plasma, po, 10 mg/kg, day 20, 10 mg/kg, per test subject
[5] = day 0, 10 mg/kg, per test subject
[6] = day 20, 10 mg/kg, per test subject

CNC(=O)c1[nH]c(C(=O)NC2CCC2)cc1O[C@@H](C)c1ccccc1 (stereo in doubt) [Example 101, N^5-cyclobutyl-N^2-methyl-3-(1-phenylethoxy)-1H-pyrrole-2,5-dicarboxamide]
concentration at 0.25 h (Lewis, rat, plasma, 10 mg/kg, plasma, day 20, 10 mg/kg, 0.25 h, read-out: Mean Concentration): 1410 ng/mL
concentration at 0.5 h (Lewis, rat, plasma, 10 mg/kg, plasma, day 20, 10 mg/kg, 0.5 h, read-out: Mean Concentration): 1650 ng/mL
concentration at 1 h (Lewis, rat, plasma, 10 mg/kg, plasma, day 20, 10 mg/kg, 1 h, read-out: Mean Concentration): 1640 ng/mL
concentration at 2 h (Lewis, rat, plasma, 10 mg/kg, plasma, day 20, 10 mg/kg, 2 h, read-out: Mean Concentration): 1140 ng/mL
concentration at 4 h (Lewis, rat, plasma, 10 mg/kg, plasma, day 20, 10 mg/kg, 4 h, read-out: Mean Concentration): 494 ng/mL
concentration at 8 h (Lewis, rat, plasma, 10 mg/kg, plasma, day 20, 10 mg/kg, 8 h, read-out: Mean Concentration): 169 ng/mL
concentration at 10 h (Lewis, rat, plasma, 10 mg/kg, plasma, day 20, 10 mg/kg, 10 h, read-out: Mean Concentration): 1450 ng/mL
concentration at 12 h (Lewis, rat, plasma, 10 mg/kg, plasma, day 20, 10 mg/kg, 12 h, read-out: Mean Concentration): 406 ng/mL
concentration at 14 h (Lewis, rat, plasma, 10 mg/kg, plasma, day 20, 10 mg/kg, 14 h, read-out: Mean Concentration): 138 ng/mL
concentration at 24 h (Lewis, rat, plasma, 10 mg/kg, plasma, day 20, 10 mg/kg, 24 h): 25 ng/mL
concentration at 21 day (Lewis, rat, plasma, per animal, read-out: Plasma Concentration): 2290 ng/mL
concentration at 21 day (Lewis, rat, plasma, read-out: Mean Plasma Concentration): 1580 ng/mL
AUC(0-inf) [1]: 10700 ng·h/mL
AUC(0-t) [1]: 10600 ng·h/mL
half-life [1]: 3.28 h
Cmax (Lewis, rat, plasma, po, 10 mg/kg, Lewis rats, 10 mg/kg, day 20, mean, read-out: Cmax): 1710 ng/mL
MRT inf [1]: 6.66 h
Tmax (Lewis, rat, plasma, po, 10 mg/kg, Lewis rats, 10 mg/kg, day 20, mean, read-out: Tmax): 0.67 h
AUC(0-inf) [2]: 15400 ng·h/mL
AUC(0-t) [2]: 15000 ng·h/mL
half-life [2]: 3.22 h
Cmax (Lewis, rat, plasma, po, 10 mg/kg, day 0, 10 mg/kg, Mean, read-out: Cmax): 1980 ng/mL
MRT inf [2]: 8.61 h
Tmax (Lewis, rat, plasma, po, 10 mg/kg, day 0, 10 mg/kg, Mean, read-out: Tmax): 7.3 h
AUC(0-inf) [3]: 14300 ng·h/mL
AUC(0-t) [3]: 14300 ng·h/mL
Cmax (Lewis, rat, plasma, po, 10 mg/kg, day 0, 10 mg/kg, per test subject, read-out: Cmax): 1880 ng/mL
MRT inf [3]: 7.64 h
AUC(0-inf) [4]: 8500 ng·h/mL
AUC(0-t) [4]: 8420 ng·h/mL
half-life [4]: 3.46 h
Cmax (Lewis, rat, plasma, po, 10 mg/kg, day 20, 10 mg/kg, per test subject, read-out: Cmax): 1660 ng/mL
MRT inf [4]: 6.09 h
Tmax (Lewis, rat, plasma, po, 10 mg/kg, day 20, 10 mg/kg, per test subject, read-out: Tmax): 0.5 h
Plasma concentration (day 0, 10 mg/kg, 0.5 h, per test subject): 673 ng/mL and 707 ng/mL
Plasma concentration (day 0, 10 mg/kg, 1 h, per test subject): 1160 ng/mL and 1550 ng/mL
Plasma concentration (day 0, 10 mg/kg, 2 h, per test subject): 997 ng/mL and 1610 ng/mL
Plasma concentration (day 0, 10 mg/kg, 4 h, per test subject): 1060 ng/mL and 760 ng/mL
Plasma concentration (day 0, 10 mg/kg, 8 h, per test subject): 107 ng/mL and 147 ng/mL
Plasma concentration (day 0, 10 mg/kg, 10 h, per test subject): 2460 ng/mL and 1460 ng/mL
Plasma concentration (day 0, 10 mg/kg, 12 h, per test subject): 968 ng/mL and 656 ng/mL
Plasma concentration (day 0, 10 mg/kg, 14 h, per test subject): 525 ng/mL and 469 ng/mL
AUClast/D (day 0, 10 mg/kg, Mean): 751 (ng·h/mL)/(mg/kg)
AUC—% Extrap—obs (day 0, 10 mg/kg, Mean): 2.29%
AUCInf [5]: 16528 ng·h/mL and 15290 ng·h/mL
AUClast [5]: 16397 ng·h/mL and 14408 ng·h/mL
AUClast/D [5]: 713 (ng·h/mL)/(mg/kg) and 820 (ng·h/mL)/(mg/kg) and 720 (ng·h/mL)/(mg/kg)
AUC—% Extrap—obs [5]: 0.307% and 0.788% and 5.77%
Cmax [5]: 2460 ng/mL and 1610 ng/mL
MRTInf—obs [5]: 8.69 h and 9.50 h
Tmax [5]: 10.0 h
Plasma concentration (day 20, 10 mg/kg, 0.25 h, per test subject): 1400 ng/mL and 1570 ng/mL
Plasma concentration (day 20, 10 mg/kg, 0.5 h, per test subject): 1550 ng/mL and 1730 ng/mL
Plasma concentration (day 20, 10 mg/kg, 1 h, per test subject): 1730 ng/mL and 1590 ng/mL
Plasma concentration (day 20, 10 mg/kg, 2 h, per test subject): 1260 ng/mL and 1320 ng/mL
Plasma concentration (day 20, 10 mg/kg, 4 h, per test subject): 513 ng/mL and 518 ng/mL
Plasma concentration (day 20, 10 mg/kg, 10 h, per test subject): 1710 ng/mL and 1460 ng/mL
Plasma concentration (day 20, 10 mg/kg, 12 h, per test subject): 461 ng/mL and 498 ng/mL
AUCInf [6]: 11782 ng·h/mL and 11743 ng·h/mL
AUClast [6]: 11699 ng·h/mL and 11548 ng·h/mL
AUClast/D [6]: 421 (ng·h/mL)/(mg/kg) and 585 (ng·h/mL)/(mg/kg) and 577 (ng·h/mL)/(mg/kg)
AUC—% Extrap—obs [6]: 0.982% and 0.700% and 1.65%
Cmax [6]: 1730 ng/mL
MRTInf—obs [6]: 6.80 h and 7.09 h
T1/2 [6]: 2.85 h and 3.54 h
Tmax [6]: 1.00 h and 0.500 h

— patent US20250263370A1 (Tay Therapeutics Limited, priority 2022, published 2025)
